Experimental data as given in US20050096370A1, “Method for inhibiting tumor angiogenesis and tumor growth” (Bizbiotech Co., Ltd., priority 2003, published 2005).

Legend:
VEGF = VEGF mRNA RT-PCR in NCI-H87, SiHa, SK-N-MC and Caki-1 cells under hypoxia; type: cell-based, human; details: Caki-1 cells, hypoxic, 16 hours
Method: FIG. 5 is an autoradiograph showing mRNA levels of VEGF and β-actin in cancer cells of different origin.
Levels of HIF-1α and β-actin proteins were analyzed by immunoblot analysis using a rabbit anti-HIF-1α antibody or a rabbit anti-p-actin antibody. Proteins were visualized by enhanced chemiluminescence.

[1] = test system: natural killer (NK) cell activity; experiment: NK cell activity of splenic lymphocytes from treated mice (51Cr release from YAC-1 cells); type: in vivo, nude mice; details: 30 μg/g daily i.p. for 2 weeks
Method: (§1) The lymphocytes were then incubated at the indicated effectontarget cell (E:T) ratios with ^51Cr-labeled YAC-1 cells (1×10^4). After 4 hours, the amount of radioactivity in the culture supernatants was measured with a gamma counter. […] Splenic lymphocytes were then isolated and tested for NK cell activity. The result is expressed as the mean of four separate experiments with 95% confidence intervals.
(§2) Splenic lymphocytes were isolated from each mouse and tested immediately for NK cell activity. The spontaneous release of ^51Cr from YAC-1 cells was usually lower than 10% of the total ^51Cr loaded. NK cell activity was calculated as follows: {(experimental release−spontaneous release)/(total release−spontaneous release)}×100. Each assay was repeated three times and the average value is the result from one experiment. Results are expressed as the mean and 95% confidence intervals of 4 separate experiments.

[2] = test system: natural killer (NK) cell activity; experiment: NK cell activity of splenic lymphocytes incubated with YC-1 in vitro (51Cr release from YAC-1 cells); type: cell-based, nude mice; details: 24 hours
Method: as §1
The quality of the extracted RNAs was verified by identifying the 18S ribosomal RNA (rRNA) on a 1% denaturing agarose gel. VEGF, aldolase A and enolase 1 mRNA levels were also lower in YC-1-treated tumors than in vehicle-treated tumors one experiment. Results are expressed as the mean and 95% confidence intervals of 4 separate experiments.
as §2

[3] = test system: HIF-1-regulated genes (VEGF, aldolase A, and enolase 1); experiment: semi-quantitative RT-PCR of HIF-1α and HIF-1-regulated gene mRNA in Hep3B cells; type: cell-based, human; details: 16 hours
Method: FIG. 2 is an autoradiograph showing mRNA levels of VEGF, aldolase A, enolase 1, HIF-1α, and β-actin.
Immunoblotting was used to detect HIF-1 protein in cultured cells, as described (Chun et al., Biochem Pharmacol 2001 61:947-954). Cells were centrifuged at 3000 rpm for 5 minutes at VC and then washed twice with ice-cold phosphate buffered saline (PBS). Cells were then resuspended in ten packed cell volumes of alysis buffer consisting of 10 mM Tris, pH 7.4, 130 mM NaCl, 2 mM EDTA, 1% Nonidet P-40, 0.5 mM dithiothreitol, and 0.5 mM phenylmethylsulfonyl fluoride. […] To quantify mRNAs for HIF-1α and HIF-1-regulated genes, we performed a highly sensitive, semi-quantitative reverse transcription-polymerase chain reaction (RT PCR), as described previously (Chun et al., J Cell Sci 2001 114:4051-4061). […] P-actin mRNA was measured as a PCR control. […] To assess whether the VEGF mRNA levels affected levels of VEGF protein secreted into the medium, we measured VEGF protein levels in Hep3B cell-conditioned medium. […] VEGF levels in the conditioned media were quantified by using the Quantikine human VEGF Immunoassay kit (R&D Systems, Minneapolis, Minn.) according to the manufacturer's recommended protocol. The VEGF concentrations were quantified by comparison with a series of VEGF standard samples included in the assay kit. […]

SMILES: OCc1ccc(-c2nn(Cc3ccccc3)c3ccccc23)o1 [YC-1, 3-(5′-hydroxymethyl-2′-furyl)-1-benzylindazole]
- level of VEGF mRNA (VEGF): dose-dependently inhibited
- cytolytic activity versus vehicle-treated mice [1]: comparable
- cytolytic activity against YAC-1 cells versus lymphocytes incubated without YC-1 [2]: comparable
- HIF-1α mRNA level [3]: relatively unchanged
- expression of HIF-1-regulated genes (VEGF, aldolase A, and enolase 1) mRNA ([3]; hypoxic): dose dependently decreased
